{"source": "paper PMC6934184", "about": "“Selective DNA-PKcs inhibition extends the therapeutic index of localized radiotherapy and chemotherapy” (The Journal of Clinical Investigation, 2019)", "biological_target": "T1, CDK11 (Inactive) (Homo sapiens, UniProt Q9BWU1)", "T1 construct": "purchased Thermo Fisher Scientific (Life Technologies) SelectScreen", "T1 sequence (Q9BWU1 whole entry)": "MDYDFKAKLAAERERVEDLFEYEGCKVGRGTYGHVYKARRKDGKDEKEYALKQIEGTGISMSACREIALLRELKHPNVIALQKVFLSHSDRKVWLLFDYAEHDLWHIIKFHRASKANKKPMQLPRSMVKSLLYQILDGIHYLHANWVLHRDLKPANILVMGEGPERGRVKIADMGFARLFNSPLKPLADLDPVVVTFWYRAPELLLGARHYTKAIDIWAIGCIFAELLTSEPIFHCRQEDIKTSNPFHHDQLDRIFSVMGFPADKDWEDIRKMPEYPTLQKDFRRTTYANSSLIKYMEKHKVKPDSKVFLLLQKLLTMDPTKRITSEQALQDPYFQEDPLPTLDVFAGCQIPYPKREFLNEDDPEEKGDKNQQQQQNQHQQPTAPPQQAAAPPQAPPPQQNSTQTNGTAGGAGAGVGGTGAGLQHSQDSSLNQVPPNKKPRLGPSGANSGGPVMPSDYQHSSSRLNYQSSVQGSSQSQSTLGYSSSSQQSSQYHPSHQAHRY", "test": "SelectScreen LanthaScreen", "format": "binding", "conditions": "1 µM", "method_in_brief": "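NU5455 was profiled across the SelectScreen Broad panel of kinase activity and binding assays. Z'LYTE reactions such as CSF1R ran at apparent Km ATP, while the Adapta CAMK1 assay used ATP listed as 10. Values are given as percent.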", "data": [{"compound": "CN(C(=O)CN1CCOCC1)c1ccc2sc3c(-c4cccc5c(=O)cc(N6CC7CCC(C6)O7)oc45)cccc3c2c1", "note": "[NU5455]", "values": [{"measurement": "% displacement", "result": 1.7, "unit": "%"}]}]}
